Test results from patent US20250066350A1, “AROMATIC HETEROCYCLE-SUBSTITUTED COMPOUNDS, AND PREPARATION METHOD THEREFOR AND USE THEREOF” (Innovstone Therapeutics Limited, priority 2021, published 2025).
Where two headings read alike, the source gives them in different places.

Assays:
[1] = target: ATR enzyme (Homo sapiens (Human), UniProt Q13535); test: Inhibitory effect on ATR enzyme (HTRF, phospho-P53); format: biochemical; conditions: 90 minutes incubation, 150 nM ATP final; read-out: IC50 for ATR enzyme inhibition
Sequence of ATR enzyme (Q13535 whole entry): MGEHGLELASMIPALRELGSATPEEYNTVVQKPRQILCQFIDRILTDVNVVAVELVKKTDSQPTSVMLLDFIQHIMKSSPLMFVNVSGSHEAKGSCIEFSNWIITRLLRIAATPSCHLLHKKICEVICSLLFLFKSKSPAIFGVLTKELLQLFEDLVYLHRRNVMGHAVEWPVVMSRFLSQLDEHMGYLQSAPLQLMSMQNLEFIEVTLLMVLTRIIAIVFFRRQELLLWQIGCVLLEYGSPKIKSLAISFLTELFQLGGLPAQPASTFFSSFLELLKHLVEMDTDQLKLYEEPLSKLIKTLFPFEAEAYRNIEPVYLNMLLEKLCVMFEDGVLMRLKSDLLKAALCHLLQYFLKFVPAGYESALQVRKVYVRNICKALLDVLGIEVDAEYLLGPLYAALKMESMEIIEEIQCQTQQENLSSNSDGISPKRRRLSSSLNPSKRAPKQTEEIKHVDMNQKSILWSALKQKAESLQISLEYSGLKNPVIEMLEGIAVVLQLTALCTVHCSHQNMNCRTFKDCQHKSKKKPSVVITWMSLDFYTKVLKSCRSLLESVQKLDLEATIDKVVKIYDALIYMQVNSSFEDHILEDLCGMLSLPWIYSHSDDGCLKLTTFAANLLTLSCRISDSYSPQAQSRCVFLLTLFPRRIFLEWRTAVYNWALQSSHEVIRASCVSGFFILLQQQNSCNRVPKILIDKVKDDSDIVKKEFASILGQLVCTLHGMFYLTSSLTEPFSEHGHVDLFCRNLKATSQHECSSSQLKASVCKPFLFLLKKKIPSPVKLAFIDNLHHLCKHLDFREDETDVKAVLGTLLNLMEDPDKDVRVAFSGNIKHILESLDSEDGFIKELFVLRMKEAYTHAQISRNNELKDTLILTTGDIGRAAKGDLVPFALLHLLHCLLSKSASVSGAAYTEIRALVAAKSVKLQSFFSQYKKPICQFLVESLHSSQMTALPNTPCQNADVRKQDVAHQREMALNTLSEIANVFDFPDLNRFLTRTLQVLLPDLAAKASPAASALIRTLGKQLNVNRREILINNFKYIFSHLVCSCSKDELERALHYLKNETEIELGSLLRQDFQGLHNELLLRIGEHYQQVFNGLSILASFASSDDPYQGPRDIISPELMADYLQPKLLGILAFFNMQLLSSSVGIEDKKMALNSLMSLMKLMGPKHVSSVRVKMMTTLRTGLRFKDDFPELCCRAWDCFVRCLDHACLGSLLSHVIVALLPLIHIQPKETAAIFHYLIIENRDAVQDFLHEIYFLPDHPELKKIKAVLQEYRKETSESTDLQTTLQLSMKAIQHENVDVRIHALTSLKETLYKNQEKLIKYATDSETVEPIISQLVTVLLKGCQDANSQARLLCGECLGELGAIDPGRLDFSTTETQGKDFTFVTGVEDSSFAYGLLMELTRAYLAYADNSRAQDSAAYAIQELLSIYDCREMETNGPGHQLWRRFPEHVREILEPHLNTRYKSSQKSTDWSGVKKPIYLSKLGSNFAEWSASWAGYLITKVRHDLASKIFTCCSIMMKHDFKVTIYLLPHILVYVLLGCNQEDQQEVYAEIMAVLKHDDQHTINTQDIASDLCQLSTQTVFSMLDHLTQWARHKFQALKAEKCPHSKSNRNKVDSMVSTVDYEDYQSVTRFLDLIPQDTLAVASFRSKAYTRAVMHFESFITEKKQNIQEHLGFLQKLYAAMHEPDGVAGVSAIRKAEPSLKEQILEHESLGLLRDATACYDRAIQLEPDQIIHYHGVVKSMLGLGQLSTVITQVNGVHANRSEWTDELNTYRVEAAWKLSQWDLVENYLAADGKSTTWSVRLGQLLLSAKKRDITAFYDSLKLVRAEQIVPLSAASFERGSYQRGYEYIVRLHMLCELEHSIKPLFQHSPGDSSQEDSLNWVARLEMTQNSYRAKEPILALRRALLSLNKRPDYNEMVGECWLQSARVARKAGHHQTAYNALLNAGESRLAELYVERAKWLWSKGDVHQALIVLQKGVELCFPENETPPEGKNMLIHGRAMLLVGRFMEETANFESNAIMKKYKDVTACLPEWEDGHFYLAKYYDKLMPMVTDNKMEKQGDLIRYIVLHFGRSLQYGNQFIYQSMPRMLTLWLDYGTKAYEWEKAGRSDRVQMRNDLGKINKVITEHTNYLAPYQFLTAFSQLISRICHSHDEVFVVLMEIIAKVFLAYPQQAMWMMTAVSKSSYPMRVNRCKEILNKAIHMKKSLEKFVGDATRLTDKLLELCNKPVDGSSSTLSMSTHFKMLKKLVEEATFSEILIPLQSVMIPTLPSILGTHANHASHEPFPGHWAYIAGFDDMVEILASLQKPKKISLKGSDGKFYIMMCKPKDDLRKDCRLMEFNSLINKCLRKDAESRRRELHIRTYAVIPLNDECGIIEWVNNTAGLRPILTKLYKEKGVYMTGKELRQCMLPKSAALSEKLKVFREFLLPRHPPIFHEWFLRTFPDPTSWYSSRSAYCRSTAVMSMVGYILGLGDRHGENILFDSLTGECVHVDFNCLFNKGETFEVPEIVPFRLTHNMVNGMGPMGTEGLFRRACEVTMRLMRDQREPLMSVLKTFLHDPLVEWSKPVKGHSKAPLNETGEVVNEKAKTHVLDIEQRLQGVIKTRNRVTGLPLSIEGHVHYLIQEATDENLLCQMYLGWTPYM
Sequence of ATR enzyme (Q8WXE1 whole entry partner): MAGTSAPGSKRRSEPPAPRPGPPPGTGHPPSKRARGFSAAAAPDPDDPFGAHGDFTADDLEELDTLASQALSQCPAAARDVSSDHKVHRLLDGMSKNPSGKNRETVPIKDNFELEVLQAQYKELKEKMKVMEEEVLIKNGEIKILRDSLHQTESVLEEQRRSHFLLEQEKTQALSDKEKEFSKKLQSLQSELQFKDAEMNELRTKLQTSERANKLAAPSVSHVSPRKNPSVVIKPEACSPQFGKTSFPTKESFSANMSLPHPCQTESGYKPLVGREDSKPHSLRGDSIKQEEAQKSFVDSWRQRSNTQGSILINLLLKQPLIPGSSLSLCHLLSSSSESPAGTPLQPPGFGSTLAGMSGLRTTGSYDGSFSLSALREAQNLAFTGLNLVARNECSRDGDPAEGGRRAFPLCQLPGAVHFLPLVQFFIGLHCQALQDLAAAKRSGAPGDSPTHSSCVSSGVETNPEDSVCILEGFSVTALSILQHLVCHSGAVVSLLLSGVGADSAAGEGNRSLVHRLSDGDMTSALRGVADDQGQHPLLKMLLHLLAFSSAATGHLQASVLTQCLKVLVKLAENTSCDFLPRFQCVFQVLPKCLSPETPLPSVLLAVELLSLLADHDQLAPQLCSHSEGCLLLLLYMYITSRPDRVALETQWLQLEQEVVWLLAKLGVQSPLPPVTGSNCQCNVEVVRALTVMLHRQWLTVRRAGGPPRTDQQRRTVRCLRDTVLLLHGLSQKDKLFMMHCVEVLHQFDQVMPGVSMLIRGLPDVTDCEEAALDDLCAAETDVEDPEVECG
Description: Test Example 1. Inhibitory Effect of Compounds of the Present Invention on ATR Enzyme
The following method is used to determine the inhibitory effect of the compounds of the present invention on the ATR enzyme. The experimental method is briefly described as follows:
1. ATR enzyme (Eurofins Pharma Discovery Services, 14-953M)
2. GST-tagged P53 protein (Eurofins Pharma Discovery Services, 14-952M)
15 nM ATR enzyme, 80 nM P53 protein, 300 nM ATP (the final concentrations were 40 nM and 150 nM, respectively), and small molecule compounds of various concentrations (the final concentrations (nM) of the ten points were 2985.0, 895.5, 298.5, 110.56, 33.17, 11.06, 4.09, 1.23, 0.41 and 0.15, respectively, and the final dimethyl sulfoxide concentration was 0.498%) were mixed and incubated at room temperature for 90 minutes. 10 μL of 2× cocktail buffer was added to the mixture of ATR, compound and substrate in the assay plate (anti-phospho-p53-Eu and anti-GST-d2 were diluted in the assay buffer). The resulting mixture was centrifuged at 1000 rpm for 30 seconds, and incubated overnight at 4° C. in the dark (a total of 20 μl in each well). The FRET signal (endpoint) was measured in the Envision instrument (HTRF 665/612 ratio was calculated at 665 nm emission and 612 nm emission). Data were processed using GraphPad software.
The inhibitory activity of the compounds of the present invention on the ATR enzyme can be determined by the test described above, and the measured IC50 values are shown in Table 1.

[2] = test system: SNU-601 cells; test: SNU-601 cell proliferation experiment (CellTiter-Glo, intracellular ATP); format: cell-based; conditions: SNU-601 human gastric cancer cells, 5 days, read-out: IC50 for inhibition of SNU-601 cell proliferation
Description: The following method is used to evaluate the inhibitory effect of the compounds of the present disclosure on SNU-601 cell proliferation according to the IC50 values by means of detecting the intracellular ATP content. The experimental method is briefly described as follows:
1. SNU-601, human gastric cancer tumor cells (Co-bioer, CBP60507)
SNU-601 cells were cultured in RPMI 1640 medium containing 10% FBS and passaged 2 to 3 times a week at a split ratio of 1:5 or 1:10. During passage, the cells were trypsinized and transferred to a centrifuge tube. The tube was centrifuged at 1000 rpm for 5 minutes, the supernatant medium was discarded, and fresh medium was added to resuspend the cells. 195 μL of cell suspension at a density of 5.128×10^3 cells/mL was added to a 96-well cell culture plate, and 200 μL of complete medium only was added to the periphery wells of the 96-well plate. The culture plate was incubated in an incubator for 24 hours (37° C., 5% CO2).
The sample to be tested was diluted to 2 mM with DMSO, diluted 3-fold serially to 10 concentrations. Blank and control wells were set. 10 μL of the solution containing the compound to be tested prepared in gradient concentrations was added to 50 μL of fresh medium. 5 μL of the above culture medium solution containing the compound was added to the culture plate. The culture plate was incubated in an incubator for 5 days (37° C., 5% CO2). 50 μL of CellTiter-Glo reagent was added to each well of the 96-well cell culture plate after discarding 100 μL/well, and the plate was shaken at room temperature in the dark for 10 min. The chemiluminescent signal values were read in PHERAstar, and data were processed using GraphPad software.
The inhibitory effect of the compounds of the present invention on SNU-601 cell proliferation can be determined by the test described above, and the measured IC50 values are shown in Table 3.

Row | Compound | IC50 [1] | IC50 ([2]; 120 h) | IC50 [2]
1 | C[C@@H]1COCCN1c1cc(-c2ccc(NC(=O)C3CC3)cc2)c2cnn(-c3cc[nH]n3)c2n1 [Example 218] | ≤ 0.01 µM | 0.01 to 0.1 µM | 
2 | C[C@@H]1COCCN1c1cc(-c2ccc(NC(=O)C3CCC3)cc2)c2cnn(-c3cc[nH]n3)c2n1 [Example 32, (R)-N-(4-(6-(3-methylmorpholinyl)-1-(1H-pyrazolyl-3-yl)-1H-pyrazolyl[3,4-b]pyridin-4-yl)phenyl)cyclobutanecarboxamide] | ≤ 0.01 µM | 0.01 to 0.1 µM | 
3 | Cc1cc(N2CCCCC2=O)ccc1-c1cc(N2CCOC[C@H]2C)nc2c1cnn2-c1cc[nH]n1 [Example 168] | ≤ 0.01 µM |  | 0.01 to 0.1 µM
4 | C[C@@H]1COCCN1c1cc(C2(C#N)CCN(c3cccc(F)c3)CC2)c2cnn(-c3cc[nH]n3)c2n1 [Example 208] | ≤ 0.01 µM |  | 0.01 to 0.1 µM
5 | C[C@@H]1COCCN1c1cc(-c2c(F)cc(N3CCCCC3=O)cc2F)c2cnn(-c3cc[nH]n3)c2n1 [Example 240] | ≤ 0.01 µM | 0.01 to 0.1 µM | 
6 | C[C@@H]1COCCN1c1cc(-c2ccc(N3CCCN(C)C3=O)cc2)c2cnn(-c3cc[nH]n3)c2n1 [Example 62] | ≤ 0.01 µM |  | 0.01 to 0.1 µM
7 | C[C@@H]1COCCN1c1cc(-c2ccc(NC(=O)N3CCCC3)cc2F)c2cnn(-c3cc[nH]n3)c2n1 [Example 245] | ≤ 0.01 µM | 0.01 to 0.1 µM | 
8 | C[C@@H]1COCCN1c1cc(-c2ccc(NC(=O)C3CCOC3)cc2)c2cnn(-c3cc[nH]n3)c2n1 (stereo partly shown) [Example 154] | ≤ 0.01 µM |  | 0.01 to 0.1 µM
9 | CCN1CCN(c2ccc(-c3cc(N4CCOC[C@H]4C)nc4c3cnn4-c3cc[nH]n3)cc2)C1=O [Example 216] | ≤ 0.01 µM |  | 0.01 to 0.1 µM
10 | CCn1ccn(-c2ccc(-c3cc(N4CCOC[C@H]4C)nc4c3cnn4-c3cc[nH]n3)cc2)c1=O [Example 222] | ≤ 0.01 µM | 0.01 to 0.1 µM | 
11 | C[C@@H]1COCCN1c1cc(-c2ccc(N3CC4CCC(O4)C3=O)cn2)c2cnn(-c3cc[nH]n3)c2n1 (stereo partly shown) [Example 237] | ≤ 0.01 µM | 0.01 to 0.1 µM | 
12 | C[C@@H]1COCCN1c1cc(N2CC(NC(=O)C3CCC3)C2)c2cnn(-c3cc[nH]n3)c2n1 [Example 265] | 0.01 to 0.05 µM | 0.01 to 0.1 µM | 
13 | CC(=O)C(=O)Nc1ccc(-c2cc(N3CCOC[C@H]3C)nc3c2cnn3-c2cc[nH]n2)cc1 [Example 31, (R)-N-(4-(6-(3-methylmorpholino)-1-(1H-pyrazol-3-yl)-1H-pyrazolo[3,4-b]pyridin-4-yl)phenyl)-2-oxopropanamide] | ≤ 0.01 µM | 0.01 to 0.1 µM | 
14 | CC1CCCN1C(=O)Nc1ccc(-c2cc(N3CCOC[C@H]3C)nc3c2cnn3-c2cc[nH]n2)cc1 (stereo partly shown) [Example 246] | ≤ 0.01 µM | 0.01 to 0.1 µM | 
15 | Cc1cc(NC(=O)N2CCCC2)cc(C)c1-c1cc(N2CCOC[C@H]2C)nc2c1cnn2-c1cc[nH]n1 [Example 251] | ≤ 0.01 µM | 0.01 to 0.1 µM | 
16 | CC(=O)Nc1cccc(-c2cc(N3CCOC[C@H]3C)nc3c2cnn3-c2cc[nH]n2)c1 [Example 149] | ≤ 0.01 µM | 0.01 to 0.1 µM | 
17 | C[C@@H]1COCCN1c1cc(-c2ccc(NC(=O)N3CCNCC3)cc2)c2cnn(-c3cc[nH]n3)c2n1 [Example 219] | ≤ 0.01 µM | 0.01 to 0.1 µM | 
18 | C[C@@H]1COCCN1c1cc(-c2ccc(N3CCCNC3=O)cc2)c2cnn(-c3cc[nH]n3)c2n1 [Example 146] | ≤ 0.01 µM |  | 0.01 to 0.1 µM
19 | C[C@@H]1COCCN1c1cc(-c2ccc(N3CCCCC3=O)cc2F)c2cnn(-c3cc[nH]n3)c2n1 [Example 238] | ≤ 0.01 µM | 0.01 to 0.1 µM | 
20 | C[C@@H]1COCCN1c1cc(-c2ccc(NC(=O)N3CCCC3)nc2)c2cnn(-c3cc[nH]n3)c2n1 [Example 250] | ≤ 0.01 µM | 0.01 to 0.1 µM | 
21 | Cc1cc(N2CC3CCC(O3)C2=O)ccc1-c1cc(N2CCOC[C@H]2C)nc2c1cnn2-c1cc[nH]n1 (stereo partly shown) [Example 254] | ≤ 0.01 µM | 0.01 to 0.1 µM | 

Row | Compound | IC50 [1] | IC50 ([2]; 120 h) | IC50 [2]
22 | C[C@@H]1COCCN1c1cc(-c2ccc(NC(=O)NC3CC3)cc2)c2cnn(-c3cc[nH]n3)c2n1 [Example 33, (R)-1-cyclopropyl-3-(4-(6-(3-methylmorpholinyl)-1-(1H-pyrazolyl-3-yl)-1H-pyrazolyl[3,4-b]pyridin-4-yl)phenyl)urea] | ≤ 0.01 µM | 0.01 to 0.1 µM | 
23 | C[C@@H]1COCCN1c1cc(-c2ccc(NC(=O)N3CCCCC3)c(F)c2)c2cnn(-c3cc[nH]n3)c2n1 [Example 244] | ≤ 0.01 µM | 0.01 to 0.1 µM | 
24 | C[C@@H]1COCCN1c1cc(-c2ccc(NC(=O)C3CC(N)C3)cc2)c2cnn(-c3cc[nH]n3)c2n1 (stereo partly shown) [Example 158] | ≤ 0.01 µM |  | 0.01 to 0.1 µM
25 | C[C@@H]1COCCN1c1cc(-c2ccc(N3C(=O)C4CCC3CC4)cc2F)c2cnn(-c3cc[nH]n3)c2n1 [Example 264] | ≤ 0.01 µM | 0.01 to 0.1 µM | 
26 | Cc1cc(-c2cc(N3CCOC[C@H]3C)nc3c2cnn3-c2cc[nH]n2)ccc1N1CC2CCC(O2)C1=O (stereo partly shown) [Example 256] | ≤ 0.01 µM | 0.01 to 0.1 µM | 
27 | C[C@@H]1COCCN1c1cc(-c2ccc(NC(=O)C(F)F)cc2F)c2cnn(-c3cc[nH]n3)c2n1 [Example 236] | ≤ 0.01 µM | 0.01 to 0.1 µM | 
28 | C[C@@H]1COCCN1c1cc(-c2ccc(NC(=O)c3cccs3)cc2)c2cnn(-c3cc[nH]n3)c2n1 [Example 172] | ≤ 0.01 µM |  | 0.01 to 0.1 µM
29 | CCC(=O)Nc1ccc(-c2cc(N3CCOC[C@H]3C)nc3c2cnn3-c2cc[nH]n2)c(F)c1 [Example 233] | ≤ 0.01 µM | 0.01 to 0.1 µM | 
30 | Cc1cc(-c2cc(N3CCOC[C@H]3C)nc3c2cnn3-c2cc[nH]n2)ccc1NC(=O)N1CCCC1 [Example 226] | ≤ 0.01 µM | 0.01 to 0.1 µM | 
31 | C[C@@H]1COCCN1c1cc(-c2cnc(N3CC4CCC(O4)C3=O)cc2F)c2cnn(-c3cc[nH]n3)c2n1 (stereo partly shown) [Example 257] | ≤ 0.01 µM | 0.01 to 0.1 µM | 
32 | C[C@@H]1COCCN1c1cc(-c2ccc(NC(=O)C3CC(O)C3)cc2)c2cnn(-c3cc[nH]n3)c2n1 (stereo partly shown) [Example 160] | ≤ 0.01 µM |  | 0.01 to 0.1 µM
33 | C[C@@H]1COCCN1c1cc(C#CC2(C#N)CCCNC2)c2cnn(-c3cc[nH]n3)c2n1 (stereo partly shown) [Example 82] |  |  | 0.01 to 0.1 µM
34 | CCC(CC)C(=O)Nc1ccc(-c2cc(N3CCOC[C@H]3C)nc3c2cnn3-c2cc[nH]n2)cc1 [Example 151] |  | 0.01 to 0.1 µM | 
35 | C[C@@H]1COCCN1c1cc(-c2ccc(N3CCCCC3=O)c(C#N)c2)c2cnn(-c3cc[nH]n3)c2n1 [Example 169] |  | 0.01 to 0.1 µM | 
36 | C[C@@H]1COCCN1c1cc(-c2ccc(N3CCCCC3=O)nc2)c2cnn(-c3cc[nH]n3)c2n1 [Example 167] |  | 0.01 to 0.1 µM | 
37 | C[C@@H]1COCCN1c1cc(-c2cc(C#N)c(N3CCCCC3=O)cc2F)c2cnn(-c3cc[nH]n3)c2n1 [Example 259] |  | 0.01 to 0.1 µM | 
38 | CNC(=O)N(C)c1ccc(-c2cc(N3CCOC[C@H]3C)nc3c2cnn3-c2cc[nH]n2)cc1 [Example 215] |  | 0.01 to 0.1 µM | 
39 | C[C@@H]1COCCN1c1cc(-c2ccc(NC(=O)c3cccnc3)cc2F)c2cnn(-c3cc[nH]n3)c2n1 [Example 195] |  | 0.01 to 0.1 µM | 
40 | C[C@@H]1COCCN1c1cc(-c2ccc(N3CC4CCC(O4)C3=O)cc2)c2cnn(-c3cc[nH]n3)c2n1 (stereo partly shown) [Example 65] |  | 0.01 to 0.1 µM | 
41 | C[C@@H]1COCCN1c1cc(-c2ccc(NC(=O)c3ccccc3)cc2)c2cnn(-c3cc[nH]n3)c2n1 [Example 163] |  | 0.01 to 0.1 µM | 
